Experiments:
[1] = target: T1, Endothelin-1 receptor (Rattus norvegicus) (UniProt P26684); test: Inhibition of (125 I)-endothelin 1 binding to endothelin A receptor in rat ventricle
T1 sequence (whole entry): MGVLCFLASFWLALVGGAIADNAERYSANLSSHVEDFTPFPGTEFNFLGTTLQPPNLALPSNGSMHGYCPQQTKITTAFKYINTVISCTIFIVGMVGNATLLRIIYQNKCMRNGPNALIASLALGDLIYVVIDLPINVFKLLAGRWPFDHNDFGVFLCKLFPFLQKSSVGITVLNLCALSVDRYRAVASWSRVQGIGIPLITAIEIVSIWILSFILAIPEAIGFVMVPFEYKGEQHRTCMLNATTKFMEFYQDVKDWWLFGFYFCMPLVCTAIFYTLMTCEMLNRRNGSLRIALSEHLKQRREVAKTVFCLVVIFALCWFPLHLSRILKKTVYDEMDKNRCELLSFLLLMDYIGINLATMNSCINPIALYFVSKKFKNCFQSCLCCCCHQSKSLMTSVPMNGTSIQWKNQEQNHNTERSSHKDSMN

[2] = target: T2, Endothelin receptor type B (Rattus norvegicus) (UniProt P21451); conditions: Cerebellum
T2 sequence (whole entry): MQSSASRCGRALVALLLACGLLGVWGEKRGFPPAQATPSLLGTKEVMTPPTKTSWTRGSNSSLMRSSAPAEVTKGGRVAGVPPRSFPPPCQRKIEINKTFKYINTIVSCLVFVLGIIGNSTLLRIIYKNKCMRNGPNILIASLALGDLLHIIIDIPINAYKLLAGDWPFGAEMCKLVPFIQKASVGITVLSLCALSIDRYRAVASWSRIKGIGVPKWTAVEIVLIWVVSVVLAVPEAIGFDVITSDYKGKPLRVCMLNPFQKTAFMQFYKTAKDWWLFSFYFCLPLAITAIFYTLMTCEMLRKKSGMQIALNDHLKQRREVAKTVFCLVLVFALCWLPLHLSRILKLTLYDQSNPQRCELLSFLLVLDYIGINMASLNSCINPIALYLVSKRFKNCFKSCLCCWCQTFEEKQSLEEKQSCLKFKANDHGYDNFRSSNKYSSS
Description: Inhibition of (125 I)-endothelin 1 binding to endothelin B receptor in rat cerebellum

Mus musculus = test: Effective dose for ET-1 induced death in mice after peroral administration; assay type: functional; conditions: po
Rattus norvegicus = test: Effective dose in rat after intravenous administration; assay type: functional

Compound | Binding affinity [1] [nM] | Binding affinity [2] [nM] | ED50 (Mus musculus) [mg/kg] | ED50 (Rattus norvegicus) [mg/kg]
CCCCc1cn(Cc2ccc(-c3ccccc3C(=O)O)cc2)c2ccc(Cn3ccc4ccccc43)cc2c1=O | 7600 | 110000 | – | –
O=C(O)c1c(Cc2ccoc2)c(=O)c2ccccc2n1Cc1cc2c(cc1Cl)OCO2 | 29 | 1900 | – | –
O=C(O)c1c(Cc2ccc(Br)cc2)c(=O)c2ccccc2n1Cc1cc2c(cc1Cl)OCO2 | 5.7 | 166 | – | –
COc1ccc(Cc2c(C(=O)O)n(Cc3cc4c(cc3Cl)OCO4)c3ccccc3c2=O)cc1 | 1.6 | 216 | – | –
O=C(O)c1c(CC2CCCCC2)c(=O)c2ccccc2n1Cc1cc2c(cc1Cl)OCO2 | 1.1 | 100 | – | –
COc1ccc(Cc2c(C(=O)O)n(Cc3ccc4c(c3)OCO4)c3ccccc3c2=O)cc1 | 10.7 | 606 | – | –
O=C(O)C[C@H]1CC[C@H](Cc2c(C(=O)O)n(Cc3cc4c(cc3Cl)OCO4)c3ccccc3c2=O)CC1 | 3.4 | 6630 | – | –
O=C(O)c1cc(=O)c2ccccc2n1Cc1cc2c(cc1Cl)OCO2 | 8700 | 29000 | – | –
O=C(O)c1c(Cc2cccc(Cl)c2Cl)c(=O)c2ccccc2n1Cc1cc2c(cc1Cl)OCO2 | 10.9 | 570 | – | –
O=C(O)c1c(Cc2ccccc2)c(=O)c2ccccc2n1Cc1cc2c(cc1Cl)OCO2 | 4.1 | 157 | – | –
O=C(O)c1c(Cc2cccnc2)c(=O)c2ccccc2n1Cc1cc2c(cc1Cl)OCO2 | 20.4 | 1600 | – | –
COc1cc(Cc2c(C(=O)O)n(Cc3cc4c(cc3Cl)OCO4)c3ccccc3c2=O)cc(OC)c1OC | 1.9 | 789 | – | –
O=C(O)c1c(Cc2ccco2)c(=O)c2ccccc2n1Cc1cc2c(cc1Cl)OCO2 | 5.7 | 1890 | – | –
COc1ccc(Cc2c(C(=O)O)n(Cc3cc(Br)c4c(c3)OCO4)c3ccccc3c2=O)cc1 | 18.9 | – | – | –
CCc1cc2c(cc1Cn1c(C(=O)[O-])c(Cc3cccc(C(=O)[O-])c3)c(=O)c3ccccc31)OCO2.[K+].[K+] | 0.69 | 571 | 10 | 0.1
COc1ccc(Cc2c(C(=O)O)n(Cc3cc4c(cc3Cl)OCO4)c3ccccc3c2=O)c(OCC(=O)O)c1 | 54.3 | 549 | – | –
COc1ccc(Cn2c(C(=O)O)c(Cc3ccc4c(c3)OCO4)c(=O)c3ccccc32)cc1 | 255 | 16000 | – | –
O=C(O)c1ccc(Cc2c(C(=O)O)n(Cc3cc4c(cc3Cl)OCO4)c3ccccc3c2=O)cc1 | 4.6 | 17100 | – | –
O=C(O)c1cccc(Cc2c(C(=O)O)n(Cc3cc4c(cc3Cl)OCO4)c3ccccc3c2=O)c1 | 3 | 500 | – | –
CCc1cc2c(cc1Cn1c(C(=O)O)c(Cc3ccc(OC)cc3)c(=O)c3ccccc31)OCO2 | 1 | 69 | – | –
COc1ccc(Cc2c(C(=O)O)n(Cc3cc(OC)c4c(c3)OCO4)c3ccccc3c2=O)cc1 | 9.5 | 244 | – | –
C=Cc1ccc(Cc2c(C(=O)O)n(Cc3cc4c(cc3Cl)OCO4)c3ccccc3c2=O)cc1 | 5.6 | 190 | – | –
COc1ccc(Cc2c(C(=O)O)n(Cc3cc4c(cc3Br)OCO4)c3ccccc3c2=O)cc1 | 7.8 | 244 | – | –
O=C(O)CCCCCc1c(C(=O)O)n(Cc2cc3c(cc2Cl)OCO3)c2ccccc2c1=O | 93 | 9500 | – | –
CCOC(=O)C[C@H]1CC[C@H](Cc2c(C(=O)O)n(Cc3cc4c(cc3Cl)OCO4)c3ccccc3c2=O)CC1 | 4.7 | 5000 | – | –
C=Cc1cc2c(cc1Cn1c(C(=O)O)c(Cc3ccc(OC)cc3)c(=O)c3ccccc31)OCO2 | 1.8 | 70 | – | –
COC(=O)c1cccc(Cc2c(C(=O)O)n(Cc3cc4c(cc3Cl)OCO4)c3ccccc3c2=O)c1 | 8.2 | 747 | – | –
CCCCc1cn(Cc2ccc(-c3ccccc3-n3cnnn3)cc2)c2ccc(CSc3ccccn3)cc2c1=O | 11000 | 12000 | – | –

— ChEMBL document CHEMBL1133222 (2000)
